Assay results taken from patent US10669284B2, “Fused thiazolopyrimidine derivatives as MNKS inhibitors” (LIFEARC, priority 2015, dated 2020).

Legend:
PTK6 = PTK6 (Homo sapiens, UniProt Q13882); assay: Kinase selectivity screen PTK6; details: read-out: % inhibition of PTK6
PRAK = molecular target: T1, PRAK (Homo sapiens, UniProt Q8IW41); assay: Kinase selectivity screen PRAK; details: read-out: % inhibition of PRAK
T1 sequence (Q8IW41 1-473): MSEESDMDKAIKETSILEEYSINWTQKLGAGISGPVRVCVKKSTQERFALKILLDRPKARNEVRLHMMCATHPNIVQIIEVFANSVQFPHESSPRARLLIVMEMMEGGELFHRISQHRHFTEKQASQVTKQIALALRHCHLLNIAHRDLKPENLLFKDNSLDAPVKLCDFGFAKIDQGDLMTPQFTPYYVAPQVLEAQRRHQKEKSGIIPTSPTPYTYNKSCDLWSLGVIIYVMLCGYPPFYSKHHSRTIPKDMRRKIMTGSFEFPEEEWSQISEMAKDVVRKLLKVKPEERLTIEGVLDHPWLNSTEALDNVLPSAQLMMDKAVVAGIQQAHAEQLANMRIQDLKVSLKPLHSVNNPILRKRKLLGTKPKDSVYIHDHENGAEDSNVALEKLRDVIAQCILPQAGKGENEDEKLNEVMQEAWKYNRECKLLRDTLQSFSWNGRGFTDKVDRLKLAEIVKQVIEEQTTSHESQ

RAF1 = RAF1 (Homo sapiens, UniProt P04049); assay: Kinase selectivity screen RAF1; details: read-out: % inhibition of RAF1
RET = RET (Homo sapiens, UniProt P07949); assay: Kinase selectivity screen RET; details: read-out: % inhibition of RET
MTOR = MTOR (Homo sapiens, UniProt P42345); assay: Kinase selectivity screen MTOR; details: read-out: % inhibition of MTOR
ALK = ALK (Homo sapiens, UniProt Q9UM73); assay: Kinase selectivity screen ALK; details: read-out: % inhibition of ALK
PIK3CG = PIK3CG (Homo sapiens, UniProt P48736); assay: Kinase selectivity screen PIK3CG; details: read-out: % inhibition of PIK3CG
EEF2K = EEF2K (Homo sapiens, UniProt O00418); assay: Kinase selectivity screen EEF2K; details: read-out: % inhibition of EEF2K
PAK1 = PAK1 (Homo sapiens, UniProt Q13153); assay: Kinase selectivity screen PAK1; details: read-out: % inhibition of PAK1
EPHA5 = EPHA5 (Homo sapiens, UniProt P54756); assay: Kinase selectivity screen EPHA5; details: read-out: % inhibition of EPHA5
PIM2 = PIM2 (Homo sapiens, UniProt Q9P1W9); assay: Kinase selectivity screen PIM2; details: read-out: % inhibition of PIM2
PIP5K1A = PIP5K1A (Homo sapiens, UniProt Q99755); assay: Kinase selectivity screen PIP5K1A; details: read-out: % inhibition of PIP5K1A
CDK9/CCNT1 = CDK9/CCNT1 (Homo sapiens, UniProt P50750); assay: Kinase selectivity screen CDK9/CCNT1; details: read-out: % inhibition of CDK9/CCNT1
ABL1 = ABL1 (Homo sapiens, UniProt P00519); assay: Kinase selectivity screen ABL1; details: read-out: % inhibition of ABL1
INSRR = INSRR (Homo sapiens, UniProt P14616); assay: Kinase selectivity screen INSRR; details: read-out: % inhibition of INSRR
BLK = BLK (Homo sapiens, UniProt P51451); assay: Kinase selectivity screen BLK; details: read-out: % inhibition of BLK
PRKAA2 = PRKAA2 (Homo sapiens, UniProt P54646); assay: Kinase selectivity screen PRKAA2; details: read-out: % inhibition of PRKAA2
YES1 = YES1 (Homo sapiens, UniProt P07947); assay: Kinase selectivity screen YES1; details: read-out: % inhibition of YES1
STK17A = molecular target: T2, STK17A (Homo sapiens, UniProt Q9UEE5); assay: Kinase selectivity screen STK17A; details: read-out: % inhibition of STK17A
T2 sequence (Q9UEE5 1-414): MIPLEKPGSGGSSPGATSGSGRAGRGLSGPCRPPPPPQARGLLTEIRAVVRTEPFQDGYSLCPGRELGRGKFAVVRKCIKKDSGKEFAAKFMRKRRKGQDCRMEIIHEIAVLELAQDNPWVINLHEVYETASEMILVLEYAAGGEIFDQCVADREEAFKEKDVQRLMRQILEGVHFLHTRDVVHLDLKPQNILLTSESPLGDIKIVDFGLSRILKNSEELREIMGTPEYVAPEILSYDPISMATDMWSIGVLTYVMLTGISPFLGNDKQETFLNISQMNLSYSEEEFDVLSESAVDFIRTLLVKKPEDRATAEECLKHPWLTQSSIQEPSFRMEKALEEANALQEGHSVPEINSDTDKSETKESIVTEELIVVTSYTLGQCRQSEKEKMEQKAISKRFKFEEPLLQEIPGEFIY

RAF1, sequence (P04049 whole entry, species assumed): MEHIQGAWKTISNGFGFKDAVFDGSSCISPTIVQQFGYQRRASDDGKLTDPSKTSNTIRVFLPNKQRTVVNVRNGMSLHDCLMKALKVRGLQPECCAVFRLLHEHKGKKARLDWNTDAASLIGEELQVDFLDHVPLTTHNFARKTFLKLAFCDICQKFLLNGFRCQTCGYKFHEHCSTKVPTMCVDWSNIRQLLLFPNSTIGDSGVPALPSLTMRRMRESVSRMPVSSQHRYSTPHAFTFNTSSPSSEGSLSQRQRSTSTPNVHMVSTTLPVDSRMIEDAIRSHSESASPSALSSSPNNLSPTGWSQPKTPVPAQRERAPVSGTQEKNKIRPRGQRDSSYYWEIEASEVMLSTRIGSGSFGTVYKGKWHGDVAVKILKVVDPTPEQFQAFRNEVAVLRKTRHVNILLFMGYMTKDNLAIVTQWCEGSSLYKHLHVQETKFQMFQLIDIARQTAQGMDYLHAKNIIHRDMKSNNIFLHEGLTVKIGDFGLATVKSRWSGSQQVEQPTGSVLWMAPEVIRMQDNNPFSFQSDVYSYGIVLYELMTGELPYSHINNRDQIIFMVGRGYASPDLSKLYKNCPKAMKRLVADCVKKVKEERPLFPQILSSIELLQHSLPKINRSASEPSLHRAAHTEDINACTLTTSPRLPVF
YES1, sequence (P07947 whole entry, species assumed): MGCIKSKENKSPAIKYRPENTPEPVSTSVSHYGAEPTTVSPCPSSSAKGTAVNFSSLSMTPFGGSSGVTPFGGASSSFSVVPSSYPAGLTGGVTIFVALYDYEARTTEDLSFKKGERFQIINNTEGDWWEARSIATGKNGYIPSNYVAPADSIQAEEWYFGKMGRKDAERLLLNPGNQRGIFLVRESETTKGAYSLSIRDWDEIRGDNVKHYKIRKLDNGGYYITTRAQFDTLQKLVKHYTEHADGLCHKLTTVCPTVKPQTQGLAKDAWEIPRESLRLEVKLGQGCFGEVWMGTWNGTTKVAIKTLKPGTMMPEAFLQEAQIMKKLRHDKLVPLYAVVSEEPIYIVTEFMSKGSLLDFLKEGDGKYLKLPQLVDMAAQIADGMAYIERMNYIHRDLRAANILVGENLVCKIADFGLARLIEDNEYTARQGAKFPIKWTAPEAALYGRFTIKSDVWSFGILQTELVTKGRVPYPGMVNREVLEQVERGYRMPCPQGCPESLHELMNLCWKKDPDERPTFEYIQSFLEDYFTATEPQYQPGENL
EPHA5, sequence (P54756 25-1037, species assumed): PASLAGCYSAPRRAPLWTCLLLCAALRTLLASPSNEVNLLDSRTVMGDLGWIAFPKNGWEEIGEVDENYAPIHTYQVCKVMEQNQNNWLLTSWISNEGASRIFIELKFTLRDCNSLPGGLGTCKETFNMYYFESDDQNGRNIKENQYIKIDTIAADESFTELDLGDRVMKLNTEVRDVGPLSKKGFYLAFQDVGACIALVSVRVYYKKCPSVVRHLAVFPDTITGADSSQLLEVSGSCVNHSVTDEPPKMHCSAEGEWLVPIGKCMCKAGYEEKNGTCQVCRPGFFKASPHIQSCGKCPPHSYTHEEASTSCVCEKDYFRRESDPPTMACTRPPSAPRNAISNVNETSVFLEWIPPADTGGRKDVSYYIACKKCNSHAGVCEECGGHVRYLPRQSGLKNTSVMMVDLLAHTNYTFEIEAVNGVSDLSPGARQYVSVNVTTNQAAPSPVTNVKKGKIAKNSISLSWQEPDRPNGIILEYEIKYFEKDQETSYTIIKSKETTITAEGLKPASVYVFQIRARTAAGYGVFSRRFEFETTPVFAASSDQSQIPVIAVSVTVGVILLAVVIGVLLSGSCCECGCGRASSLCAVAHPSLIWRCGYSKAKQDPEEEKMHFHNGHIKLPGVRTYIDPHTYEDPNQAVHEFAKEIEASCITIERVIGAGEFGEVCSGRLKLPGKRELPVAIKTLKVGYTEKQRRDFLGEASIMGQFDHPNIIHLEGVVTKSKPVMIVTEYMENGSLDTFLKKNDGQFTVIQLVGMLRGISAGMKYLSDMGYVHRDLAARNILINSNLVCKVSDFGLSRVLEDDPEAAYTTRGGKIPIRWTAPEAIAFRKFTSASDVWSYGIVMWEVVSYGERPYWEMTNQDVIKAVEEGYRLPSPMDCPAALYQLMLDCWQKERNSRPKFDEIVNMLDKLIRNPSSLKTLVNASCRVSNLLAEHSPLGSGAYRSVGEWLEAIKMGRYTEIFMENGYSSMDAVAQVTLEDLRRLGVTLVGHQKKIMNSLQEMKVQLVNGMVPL
PAK1, sequence (Q13153 whole entry): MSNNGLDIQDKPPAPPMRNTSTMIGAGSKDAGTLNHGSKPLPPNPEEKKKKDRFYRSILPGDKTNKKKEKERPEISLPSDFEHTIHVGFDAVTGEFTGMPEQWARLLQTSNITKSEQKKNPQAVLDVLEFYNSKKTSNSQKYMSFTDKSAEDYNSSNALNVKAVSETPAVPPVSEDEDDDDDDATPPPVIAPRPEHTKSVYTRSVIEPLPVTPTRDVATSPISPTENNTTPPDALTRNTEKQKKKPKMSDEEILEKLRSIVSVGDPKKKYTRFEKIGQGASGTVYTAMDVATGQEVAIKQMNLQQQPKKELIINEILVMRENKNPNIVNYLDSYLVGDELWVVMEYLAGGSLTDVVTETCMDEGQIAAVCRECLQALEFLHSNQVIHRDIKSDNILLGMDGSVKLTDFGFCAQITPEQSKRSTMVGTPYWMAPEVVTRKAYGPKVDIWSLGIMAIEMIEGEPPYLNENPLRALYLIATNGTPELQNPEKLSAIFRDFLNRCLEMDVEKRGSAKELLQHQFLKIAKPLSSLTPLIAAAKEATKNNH
CDK9/CCNT1, sequence (P50750 whole entry, species assumed): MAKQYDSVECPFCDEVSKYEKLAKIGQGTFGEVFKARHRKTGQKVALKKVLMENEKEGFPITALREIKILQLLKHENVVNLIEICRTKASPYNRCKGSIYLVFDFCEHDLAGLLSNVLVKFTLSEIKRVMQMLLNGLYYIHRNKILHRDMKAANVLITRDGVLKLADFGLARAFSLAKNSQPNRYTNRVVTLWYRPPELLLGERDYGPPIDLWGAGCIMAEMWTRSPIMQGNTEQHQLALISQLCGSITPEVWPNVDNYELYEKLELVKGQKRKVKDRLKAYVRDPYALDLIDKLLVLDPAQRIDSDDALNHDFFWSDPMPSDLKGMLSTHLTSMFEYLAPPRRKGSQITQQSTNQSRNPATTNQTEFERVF
CDK9/CCNT1, sequence (O60563 whole entry partner, species assumed): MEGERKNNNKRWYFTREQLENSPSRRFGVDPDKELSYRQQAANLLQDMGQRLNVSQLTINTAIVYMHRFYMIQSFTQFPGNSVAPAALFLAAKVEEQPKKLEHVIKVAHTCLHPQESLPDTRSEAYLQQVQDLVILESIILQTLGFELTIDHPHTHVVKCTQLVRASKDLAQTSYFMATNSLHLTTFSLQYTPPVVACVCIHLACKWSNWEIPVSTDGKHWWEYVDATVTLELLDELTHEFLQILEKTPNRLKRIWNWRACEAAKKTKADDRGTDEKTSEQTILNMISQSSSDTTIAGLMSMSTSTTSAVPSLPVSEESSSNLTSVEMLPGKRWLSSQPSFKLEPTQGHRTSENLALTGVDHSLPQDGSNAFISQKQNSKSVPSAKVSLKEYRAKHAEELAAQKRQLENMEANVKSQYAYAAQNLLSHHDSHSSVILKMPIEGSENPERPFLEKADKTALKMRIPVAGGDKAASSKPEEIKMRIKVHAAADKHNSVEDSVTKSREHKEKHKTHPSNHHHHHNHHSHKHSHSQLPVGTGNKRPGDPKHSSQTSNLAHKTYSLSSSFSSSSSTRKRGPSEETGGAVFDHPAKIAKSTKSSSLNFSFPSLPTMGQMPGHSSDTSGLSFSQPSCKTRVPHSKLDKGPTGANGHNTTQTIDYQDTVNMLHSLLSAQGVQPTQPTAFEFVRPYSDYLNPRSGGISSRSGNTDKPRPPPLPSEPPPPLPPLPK
PTK6, sequence (Q13882 whole entry, species assumed): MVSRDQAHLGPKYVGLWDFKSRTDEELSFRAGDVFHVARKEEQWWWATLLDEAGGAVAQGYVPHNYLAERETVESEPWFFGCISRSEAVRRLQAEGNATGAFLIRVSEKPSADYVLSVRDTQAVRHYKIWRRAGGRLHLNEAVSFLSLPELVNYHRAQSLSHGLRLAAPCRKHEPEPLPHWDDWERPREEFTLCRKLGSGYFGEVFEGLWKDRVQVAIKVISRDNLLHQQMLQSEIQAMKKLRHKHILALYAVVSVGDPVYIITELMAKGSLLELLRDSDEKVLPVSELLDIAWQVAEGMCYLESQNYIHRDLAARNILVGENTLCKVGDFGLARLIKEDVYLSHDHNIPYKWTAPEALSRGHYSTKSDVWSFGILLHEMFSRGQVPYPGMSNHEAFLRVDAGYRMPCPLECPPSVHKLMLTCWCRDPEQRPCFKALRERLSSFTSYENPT
BLK, sequence (P51451 whole entry, species assumed): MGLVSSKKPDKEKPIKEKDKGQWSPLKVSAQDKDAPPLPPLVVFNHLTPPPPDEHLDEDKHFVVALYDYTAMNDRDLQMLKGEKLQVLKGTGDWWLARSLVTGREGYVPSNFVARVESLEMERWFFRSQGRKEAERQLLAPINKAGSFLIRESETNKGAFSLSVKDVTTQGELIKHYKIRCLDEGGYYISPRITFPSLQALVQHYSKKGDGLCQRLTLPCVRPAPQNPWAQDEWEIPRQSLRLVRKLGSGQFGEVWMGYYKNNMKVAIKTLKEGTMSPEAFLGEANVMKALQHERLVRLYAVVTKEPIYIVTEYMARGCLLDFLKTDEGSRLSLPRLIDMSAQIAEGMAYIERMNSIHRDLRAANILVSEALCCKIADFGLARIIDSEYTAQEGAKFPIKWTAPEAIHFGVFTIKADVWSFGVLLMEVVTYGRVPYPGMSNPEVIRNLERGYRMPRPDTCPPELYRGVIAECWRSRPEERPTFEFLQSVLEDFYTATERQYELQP

Row | Compound | inhibition at 1 µM (PTK6) [%] | inhibition at 1 µM (PRAK) [%] | inhibition at 1 µM (RAF1) [%] | inhibition at 1 µM (RET) [%] | inhibition at 1 µM (MTOR) [%] | inhibition at 1 µM (ALK) [%] | inhibition at 1 µM (PIK3CG) [%] | inhibition at 1 µM (EEF2K) [%] | inhibition at 1 µM (PAK1) [%] | inhibition at 1 µM (EPHA5) [%] | inhibition at 1 µM (PIM2) [%] | inhibition at 1 µM (PIP5K1A) [%] | inhibition at 1 µM (CDK9/CCNT1) [%] | inhibition at 1 µM (ABL1) [%] | inhibition at 1 µM (INSRR) [%] | inhibition at 1 µM (BLK) [%] | inhibition at 1 µM (PRKAA2) [%] | inhibition at 1 µM (YES1) [%] | inhibition at 1 µM (STK17A) [%]
1 | O=C(NCC1CCNCC1)c1nc2c(N3CCc4cc(F)ccc43)ncnc2s1 [Example 58, 7-(5-fluoroindolin-1-yl)-N-(4-piperidylmethyl)thiazolo[5,4-d]pyrimidine-2-carboxamide] | 0 | 0 | 1 | 0 | 0 | 7 | 0 | 0 | 9 | 0 | 13 | 1 | 11 | 6 | 13 | 0 | 1 | 14 | 41
2 | CN(C)CCCNC(=O)c1nc2c(N3CCc4cc(F)ccc43)ncnc2s1 [Example 64, N-[3-(dimethylamino)propyl]-7-(5-fluoroindolin-1-yl)thiazolo[5,4-d]pyrimidine-2-carboxamide] | 4 | 0 | 0 | 0 | 3 | 3 | 3 | 0 | 0 | 0 | 42 | 0 | 4 | 4 | 0 | 1 | 45 | 4 | 70
3 | CC(C)Oc1cc(F)ccc1Nc1ncnc2sc(C(=O)NCC3CCNCC3)nc12 [Example 10, 7-(4-fluoro-2-isopropoxy-anilino)-N-(4-piperidylmethyl)thiazolo[5,4-d]pyrimidine-2-carboxamide] | 0 | 0 | 0 | 0 | 4 | 10 | 6 | 4 | 0 | 11 | 7 | 2 | 2 | 4 | 10 | 18 | 1 | 4 | 2
